Assay results as given in paper PMC10823471, “Ligand-Based Competition Binding by Real-Time ^19F NMR in Human Cells” (Journal of Medicinal Chemistry, 2024).

Target: T1, Hsp90α N-terminal domain (Hsp90N) (Homo sapiens, UniProt P07900)
T1 construct: gene HSP90AA1
Test: competition binding by real-time in-cell […] NMR against spy ligand […] (Kd back-calculated)
Format: cell-based

Kd: 600 ± 100 pM
SMILES: CCNC(=O)c1cc2c(-c3cc(OCCN(CC)CC)c(Cl)cc3Cl)nc(N)nc2s1 [compound 5]
